Experimental data as given in patent US5194433A, “Antibiotic C-3 catechol-substituted cephalosporin compounds, compositions and method of use thereof” (Bristol-Myers Squibb Company, priority 1990, dated 1993).
Values after ≈ are worked out from the molar mass of the structure shown. Where two headings read alike, the source gives them in different places.

Tests used:
Experiment in all cases: in vitro antibacterial activity, two-fold serial agar dilution in Mueller-Hinton agar (MIC)
Type in all cases: cell-based
[1] = system: Penicillin (PC)sensitive S. aureus; settings: Staphylococcus aureus, Gp-Ia, 5 strains, read-out: Geometric mean of MIC
Text: (§1) Table 3 lists the in vitro antibacterial activity of several representative compounds of the invention. The activity has been evaluated in terms of minimum inhibitory concentrations (MIC's) by a standard two-fold serial agar dilution method in Mueller-Hinton agar. The values are in geometric means of MIC's against the strains tested in each group. The activity of the known compound ceftazidime is also given for comparison.
GpIa: Penicillin (PC)sensitive S. aureus

[2] = system: PCresistant S. aureus; settings: Staphylococcus aureus; Gp-Ib, 5 strains, penicillin-resistant S. aureus; read-out: Geometric mean of MIC
Text: as §1
GpIb: PCresistant S. aureus

[3] = system: Cephalothin (CET)sensitive E. coli (2 strains), Kl. pneumoniae (1) and Pr. mirabilis (2); settings: Gn-Ia, 5 strains, read-out: Geometric mean of MIC
Text: as §1
GnIa: Cephalothin (CET)sensitive E. coli (2 strains), Kl. pneumoniae (1)

[4] = system: CETsensitive E. coli (3) and Kl. pneumoniae (2); settings: Escherichia coli, read-out: Geometric mean of MIC
Text: as §1
GnIb: CETsensitive E. coli (3) and Kl. pneumoniae (2)

[5] = system: M. morganii (1), Ent. cloacae (2) and Ser. marcesens (2); settings: Morganella morganii, read-out: Geometric mean of MIC
Text: as §1
GnII: M. morganii (1), Ent. cloacae (2) and Ser. marcesens (2)

[6] = system: Ceftazidimesensitive P. aeruginosa; settings: Pseudomonas aeruginosa, read-out: Geometric mean of MIC
Text: as §1
Pa (S): Ceftazidimesensitive P. aeruginosa

[7] = system: Ceftazidimemoderately resistant P. aeruginosa; settings: Pseudomonas aeruginosa, read-out: Geometric mean of MIC
Text: as §1
Pa (MR): Ceftazidimemoderately resistant P. aeruginosa

[8] = system: Ceftazidimehighly resistant P. aeruginosa; settings: Pseudomonas aeruginosa; Pa (HR), 8 strains, ceftazidime highly resistant; read-out: Geometric mean of MIC
Text: as §1
Pa (HR): Ceftazidimehighly resistant P. aeruginosa

[9] = system: P. cepacia; settings: Burkholderia cepacia; Pc, 2 strains; read-out: Geometric mean of MIC
Text: as §1

[10] = system: X. moltophilia; settings: read-out: Geometric mean of MIC
Text: as §1

[11] = Pa (S), 10 strains, ceftazidime-sensitive
[12] = Pa (MR), 8 strains, ceftazidime moderately resistant

CC(C)(O/N=C(\C(=O)NC1C(=O)N2C(C(=O)O)=C(Cn3cnc4cc(O)c(O)cc43)CS[C@H]12)c1csc(N)n1)C(=O)O (some centres unmarked) [Ia, 7-[(Z)-2-(2-Aminothiazol-4-yl)-2-(1-carboxy-1-methylethoxyimino)acetamido]-3-(5,6-dihydroxybenzimidazol-1-yl)methyl-3-cephem-4-carboxylic acid]
MIC [1]: 50 µg/mL (≈ 81 µM) | MIC [2]: 50 µg/mL (≈ 81 µM) | MIC [3]: 0.61 µg/mL (≈ 0.988 µM) | MIC [4]: 0.8 µg/mL (≈ 1.3 µM) | MIC ([5]; Gn-II, 5 strains): 1.6 µg/mL (≈ 2.59 µM) | MIC [6, 11]: 0.14 µg/mL (≈ 0.227 µM) | MIC [7]: 0.47 µg/mL (≈ 0.761 µM) | MIC [8]: 0.37 µg/mL (≈ 0.599 µM) | MIC [9]: 12.5 µg/mL (≈ 20.2 µM) | MIC ([10]; Xm, 4 strains): 3.1 µg/mL (≈ 5.02 µM)

CC(C)(O/N=C(\C(=O)NC1C(=O)N2C(C(=O)O)=C(Cn3cc4cc(O)c(=O)cc-4cn3)CS[C@H]12)c1csc(N)n1)C(=O)O (some centres unmarked) [Ic, 7-[(Z)-2-(2-Aminothiazol-4-yl)-2-(1-carboxy-1methylethoxyimino)acetamido]-3-(2,6-dihydro-7-hydroxy-6-oxophthalazin-2-yl)methyl-3-cephem-4-carboxylic acid]
MIC [1]: 25 µg/mL (≈ 39.7 µM) | MIC [2]: 33 µg/mL (≈ 52.4 µM) | MIC [3]: 0.11 µg/mL (≈ 0.175 µM) | MIC [4]: 0.033 µg/mL (≈ 0.0524 µM) | MIC ([5]; Gn-II, 5 strains): 0.4 µg/mL (≈ 0.635 µM) | MIC [6, 11]: 0.033 µg/mL (≈ 0.0524 µM) | MIC [7, 12]: 0.37 µg/mL (≈ 0.588 µM) | MIC [8]: 0.73 µg/mL (≈ 1.16 µM) | MIC [9]: 0.57 µg/mL (≈ 0.905 µM) | MIC ([10]; Xm, 4 strains): 6.3 µg/mL (≈ 10 µM)

CC(C)(O/N=C(\C(=O)N[C@@H]1C(=O)N2C(C(=O)[O-])=C(C[n+]3ccccc3)CS[C@H]12)c1csc(N)n1)C(=O)O [ceftazidime, reference compound]
MIC [1]: 6.3 µg/mL (≈ 11.5 µM) | MIC [2]: 12.5 µg/mL (≈ 22.9 µM) | MIC [3]: 0.17 µg/mL (≈ 0.311 µM) | MIC [4]: 0.3 µg/mL (≈ 0.549 µM) | MIC [5]: 0.91 µg/mL (≈ 1.66 µM) | MIC [6]: 1.2 µg/mL (≈ 2.2 µM) | MIC [7, 12]: 14 µg/mL (≈ 25.6 µM) | MIC [8]: 65 µg/mL (≈ 119 µM) | MIC [9]: 18 µg/mL (≈ 32.9 µM) | MIC [10]: 71 µg/mL (≈ 130 µM)

CC(C)(O/N=C(\C(=O)NC1C(=O)N2C(C(=O)O)=C(Cn3ccc4ccc(O)c(=O)c-4c3)CS[C@H]12)c1csc(N)n1)C(=O)O (some centres unmarked) [Ib, 7-[(Z)-2-(2-Aminothiazol-4-yl)-2-(1-carboxy-1-methylethoxyimino)acetamido]-3-(2,8-dihydro-7-hydroxy-8-oxo-isoquinolin-2-yl)methyl-3-cephem-4-carboxylic acid]
MIC [1]: 100 µg/mL (≈ 159 µM) | MIC [2]: > 100 µg/mL | MIC [3]: 0.6 µg/mL (≈ 0.954 µM) | MIC [4]: 0.8 µg/mL (≈ 1.27 µM) | MIC ([5]; Gn-II, 5 strains): 2.4 µg/mL (≈ 3.82 µM) | MIC [6]: 1.2 µg/mL (≈ 1.91 µM) | MIC [7, 12]: 2.9 µg/mL (≈ 4.61 µM) | MIC [8]: 2.6 µg/mL (≈ 4.14 µM) | MIC [9]: 8.9 µg/mL (≈ 14.2 µM) | MIC ([10]; Xm, 4 strains): 12.5 µg/mL (≈ 19.9 µM)

C[n+]1cn(CC2=C(C(=O)[O-])N3C(=O)C(NC(=O)C(=NOC(C)(C)C(=O)O)c4csc(N)n4)C3SC2)c2cc(O)c(O)cc21 (centres unmarked) [Id, 7-[(Z)-2-(2-Aminothiazol-4-yl)-2-(1-carboxy-1-methylethoxyimino)acetamido]-3-(5,6-dihydroxy-3-methylbenzimidazol-3-io-1-yl)methyl-3-cephem-4-carboxylate]
MIC [1]: 25 µg/mL (≈ 39.6 µM) | MIC [2]: 33 µg/mL (≈ 52.2 µM) | MIC [3]: 0.044 µg/mL (≈ 0.0697 µM) | MIC [4]: 0.15 µg/mL (≈ 0.237 µM) | MIC [5]: 0.15 µg/mL (≈ 0.237 µM) | MIC [6, 11]: 0.057 µg/mL (≈ 0.0902 µM) | MIC [7, 12]: 0.31 µg/mL (≈ 0.491 µM) | MIC [8]: 0.18 µg/mL (≈ 0.285 µM) | MIC [9]: 3.2 µg/mL (≈ 5.07 µM) | MIC ([10]; Xm, 4 strains): 0.8 µg/mL (≈ 1.27 µM)
